Converted amounts (≈) assume the structure as drawn.
Experiments:
PC-12 [1] = assay: Cytotoxic activity against PC-12 human non-small cell lung cancer cell line
PC-6 [2] = assay: Cytotoxic activity against PC-6 human small cell lung cancer; type: functional
PC-6 [3] = assay: Cytotoxic activity against PC-6/VCR29-9 vincristine resistant cell line expressing P-gp; type: functional; conditions: Homo sapiens
PC-12 [4] = assay: Cytotoxic activity against PC-12 human non-small cell lung cancer cell line; type: functional; conditions: Rattus norvegicus
Mus musculus [5] = assay: Antitumor activity against B16 melanoma in mice at dose of 33.3 mg/kg by po administration and IR value is reported; type: functional
Mus musculus [6] = assay: Antitumor activity against B16 melanoma in mice at dose of 50 mg/kg by iv administration and body weight loss is reported; type: functional
Mus musculus [7] = assay: Antitumor activity against B16 melanoma in mice at dose of 75 mg/kg by po administration and IR value is reported; type: functional
Mus musculus [8] = assay: Antitumor activity against B16 melanoma in mice at dose of 22.2 mg/kg by iv administration and IR value is reported; type: functional
Mus musculus [9] = assay: Antitumor activity against B16 melanoma at dose of 75 mg/kg by po administration in mice and mortality rate is reported; type: functional
Mus musculus [10] = assay: Antitumor activity against B16 melanoma in mice at dose of 50 mg/kg by po administration and body weight loss is reported; type: functional
Mus musculus [11] = assay: Antitumor activity against B16 melanoma in mice at dose of 22.2 mg/kg by po administration and body weight loss is reported; type: functional
Mus musculus [12] = assay: Antitumor activity against B16 melanoma in mice at dose of 22.2 mg/kg by po administration and IR value is reported; type: functional
Mus musculus [13] = assay: Antitumor activity against B16 melanoma in mice at dose of 33.3 mg/kg by po administration and body weight loss is reported; type: functional
Mus musculus [14] = assay: Antitumor activity against B16 melanoma at dose of 33.3 mg/kg by iv administration in mice and mortality rate is reported; type: functional
Mus musculus [15] = assay: Antitumor activity against B16 melanoma in mice at dose of 33.3 mg/kg by iv administration and IR value is reported; type: functional
Mus musculus [16] = assay: Antitumor activity against B16 melanoma in mice at dose of 22.2 mg/kg by iv administration and body weight loss is reported; type: functional
Mus musculus [17] = assay: Antitumor activity against B16 melanoma at dose of 112.5 mg/kg by po administration in mice and mortality rate is reported; type: functional
Mus musculus [18] = assay: Antitumor activity against B16 melanoma in mice at dose of 75 mg/kg by po administration and body weight loss is reported; type: functional
Mus musculus [19] = assay: Antitumor activity against B16 melanoma at dose of 22.2 mg/kg by po administration in mice and mortality rate is reported; type: functional
Mus musculus [20] = assay: Antitumor activity against B16 melanoma in mice at dose of 75 mg/kg by iv administration and IR value is reported; type: functional
Mus musculus [21] = assay: Antitumor activity against B16 melanoma in mice at dose of 112.5 mg/kg by po administration and IR value is reported; type: functional
Mus musculus [22] = assay: Antitumor activity against B16 melanoma in mice at dose of 50 mg/kg by po administration and IR value is reported; type: functional
Mus musculus [23] = assay: Antitumor activity against B16 melanoma at dose of 50 mg/kg by po administration in mice and mortality rate is reported; type: functional
Mus musculus [24] = assay: Antitumor activity against B16 melanoma at dose of 50 mg/kg by iv administration in mice and mortality rate is reported; type: functional
Mus musculus [25] = assay: Antitumor activity against B16 melanoma in mice at dose of 75 mg/kg by iv administration and body weight loss is reported; type: functional
Mus musculus [26] = assay: Antitumor activity against B16 melanoma in mice at dose of 33.3 mg/kg by iv administration and body weight loss is reported; type: functional
Mus musculus [27] = assay: Antitumor activity against B16 melanoma in mice at dose of 50 mg/kg by iv administration and IR value is reported; type: functional
Mus musculus [28] = assay: Antitumor activity against B16 melanoma at dose of 33.3 mg/kg by po administration in mice and mortality rate is reported; type: functional
Mus musculus [29] = assay: Antitumor activity against B16 melanoma at dose of 75 mg/kg by iv administration in mice and mortality rate is reported; type: functional
Mus musculus [30] = assay: Antitumor activity against B16 melanoma at dose of 100 mg/kg by iv administration in mice and mortality rate is reported; type: functional
Mus musculus [31] = assay: Antitumor activity against B16 melanoma in mice at dose of 112.5 mg/kg by po administration and body weight loss is reported; type: functional
Mus musculus [32] = assay: Antitumor activity against B16 melanoma in mice at dose of 100 mg/kg by iv administration and body weight loss is reported; type: functional
Mus musculus [33] = assay: Antitumor activity against B16 melanoma in mice at dose of 100 mg/kg by iv administration and IR value is reported; type: functional
Mus musculus [34] = assay: Antitumor activity against B16 melanoma at dose of 600 mg/kg by po administration in mice and mortality rate is reported; type: functional
Mus musculus [35] = assay: Antitumor activity against B16 melanoma in mice at dose of 600 mg/kg by po administration and IR value is reported; type: functional
Mus musculus [36] = assay: Antitumor activity against B16 melanoma in mice at dose of 600 mg/kg by po administration and body weight loss is reported; type: functional

`CC(=O)O[C@@]12CO[C@@H]1C[C@@H](F)[C@@]1(C)C(=O)[C@H](CCN3CCOCC3)C3=C(C)[C@@H](OC(=O)[C@H](O)[C@@H](NC(=O)OC(C)(C)C)c4ccccc4)C[C@@](O)([C@@H](OC(=O)c4ccccc4)C12)C3(C)C` (some centres not stated) showed a GI50 (PC-12 [1]) of 2.55 ng/mL (≈ 2.81 nM), a GI50 (PC-6 [2]) of 0.379 ng/mL (≈ 0.418 nM) and a GI50 (PC-6 [3]) of 16.2 ng/mL (≈ 17.9 nM).
With `CC(=O)O[C@@]12CO[C@@H]1C[C@H](O)[C@@]1(C)C(=O)[C@H](CCN3CCOCC3)C3=C(C)[C@@H](OC(=O)[C@H](O)[C@@H](NC(=O)OC(C)(C)C)c4ccccc4)C[C@@](O)([C@@H](OC(=O)c4ccccc4)[C@H]21)C3(C)C` the GI50 (PC-12 [1]) was 21.5 ng/mL (≈ 23.8 nM), the GI50 (PC-6 [2]) was 1.72 ng/mL (≈ 1.9 nM) and the GI50 (PC-6 [3]) was 76.3 ng/mL (≈ 84.3 nM).
`CC(=O)O[C@@]12CO[C@@H]1C[C@H](OCF)C1(C)C(=O)[C@H](CCN3CCOCC3)C3=C(C)[C@@H](OC(=O)[C@H](O)[C@@H](NC(=O)OC(C)(C)C)c4ccccc4)C[C@@](O)([C@@H](OC(=O)c4ccccc4)C12)C3(C)C` (some centres not stated) gave a GI50 (PC-12 [4]) of 1.5 ng/mL (≈ 1.6 nM), a GI50 (PC-6 [2]) of 0.246 ng/mL (≈ 0.263 nM) and a GI50 (PC-6 [3]) of 40.4 ng/mL (≈ 43.1 nM).
`CC(=O)O[C@@]12CO[C@@H]1C=C[C@@]1(C)C(=O)[C@H](CCN3CCOCC3)C3=C(C)[C@@H](OC(=O)[C@H](O)[C@@H](NC(=O)OC(C)(C)C)c4ccccc4)C[C@@](O)([C@@H](OC(=O)c4ccccc4)C12)C3(C)C` (some centres not stated) gave a GI50 (PC-12 [1]) of 0.824 ng/mL (≈ 0.929 nM), a GI50 (PC-6 [2]) of 0.5 ng/mL (≈ 0.564 nM) and a GI50 (PC-6 [3]) of 18 ng/mL (≈ 20.3 nM).
Molecule `CC(=O)O[C@@]12CO[C@@H]1CC[C@@]1(C)C(=O)[C@H](CCN3CCOCC3)C3=C(C)[C@@H](OC(=O)[C@H](O)[C@@H](NC(=O)OC(C)(C)C)c4ccccc4)C[C@@](O)([C@@H](OC(=O)c4ccccc4)C12)C3(C)C` (some centres not stated) has a GI50 (PC-12 [1]) of 1.47 ng/mL (≈ 1.65 nM), a GI50 (PC-6 [2]) of 0.761 ng/mL (≈ 0.856 nM) and a GI50 (PC-6 [3]) of 20.4 ng/mL (≈ 22.9 nM).
`CO[C@H]1C[C@H]2OC[C@@]2(OC(C)=O)[C@H]2[C@H](OC(=O)c3ccccc3)[C@]3(O)C[C@H](OC(=O)[C@H](O)[C@@H](NC(=O)OC(C)(C)C)c4ccccc4)C(C)=C([C@@H](CCN4CCOCC4)C(=O)[C@]12C)C3(C)C` was tested, and the IR (Mus musculus [5]) was 82.8%, the BWL (Mus musculus [6]) was 18% and the IR (Mus musculus [7]) was 98.3%. For the same molecule, the GI50 (PC-12 [1]) was 0.756 ng/mL (≈ 0.823 nM), the IR (Mus musculus [8]) was 93.7% and the Mortality (Mus musculus [9]) was 0. The BWL (Mus musculus [10]) was <1.7%, the BWL (Mus musculus [11]) was <0% and the IR (Mus musculus [12]) was 81.7%. For the same molecule, the BWL (Mus musculus [13]) was 0.9%, the Mortality (Mus musculus [14]) was 0 and the GI50 (PC-6 [2]) was 0.266 ng/mL (≈ 0.289 nM). For the same molecule, the IR (Mus musculus [15]) was 94.4%, the BWL (Mus musculus [16]) was 5.7% and the Mortality (Mus musculus [17]) was 4. The BWL (Mus musculus [18]) was 5%, the Mortality (Mus musculus [19]) was 0 and the IR (Mus musculus [20]) was 99.4%. The IR (Mus musculus [21]) was 99%, the IR (Mus musculus [22]) was 96.2% and the GI50 (PC-6 [3]) was 9.01 ng/mL (≈ 9.8 nM). For the same molecule, the Mortality (Mus musculus [23]) was 0, the Mortality (Mus musculus [24]) was 0 and the BWL (Mus musculus [25]) was 19.2%. It also gave a BWL (Mus musculus [26]) of 9.4%, an IR (Mus musculus [27]) of 98.6% and a Mortality (Mus musculus [28]) of 0. For the same molecule, the Mortality (Mus musculus [29]) was 5, the Mortality (Mus musculus [30]) was 0 and the BWL (Mus musculus [31]) was <20%.
With `CC(=O)O[C@@]12CO[C@@H]1CC1C[C@@]13C(=O)[C@H](CCN1CCOCC1)C1=C(C)[C@@H](OC(=O)[C@H](O)[C@@H](NC(=O)OC(C)(C)C)c4ccccc4)C[C@@](O)([C@@H](OC(=O)c4ccccc4)C32)C1(C)C` (some centres not stated) the GI50 (PC-12 [1]) was 3.56 ng/mL (≈ 4.01 nM), the GI50 (PC-6 [2]) was 0.873 ng/mL (≈ 0.984 nM) and the GI50 (PC-6 [3]) was 38.6 ng/mL (≈ 43.5 nM).
In the case of `CC(=O)O[C@@]12CO[C@@H]1C[C@H](O)[C@@]1(C)C(=O)[C@H](O)C3=C(C)[C@@H](OC(=O)[C@H](O)[C@@H](NC(=O)OC(C)(C)C)c4ccccc4)C[C@@](O)([C@@H](OC(=O)c4ccccc4)[C@H]21)C3(C)C.O.O.O` [DOCETAXEL], the GI50 (PC-12 [1]) is reported as 11.7 ng/mL, the BWL (Mus musculus [32]) is reported as <0% and the IR (Mus musculus [33]) is reported as 95.1%. For the same molecule, the GI50 (PC-6 [2]) was 0.408 ng/mL, the Mortality (Mus musculus [34]) was 0 and the IR (Mus musculus [35]) was 6.2%. The GI50 (PC-6 [3]) was 39.6 ng/mL, the BWL (Mus musculus [36]) was <0% and the Mortality (Mus musculus [30]) was 0.

Reference: ChEMBL document CHEMBL1134707, “Orally active docetaxel analogue: synthesis of 10-deoxy-10-C-morpholinoethyl docetaxel analogues” (2001)
